Experimental data published in article PMC12671136, “Antimicrobial peptides disrupting the bacterial membrane reduce Salmonella colonization in chickens” (Microbiology Spectrum, 2025).
Values after ≈ are worked out from the molar mass of the structure shown. Peptide text beside a SMILES is read from it.

Columns and labels:
Type in all cases: cell-based
[1] = tested on: Salmonella Typhimurium (ST); conditions: for MIC: murium (ST, 12 h)
Procedure: (§1) The inhibitory effect of the peptides was assessed as described previously ([23]). ST was grown overnight and adjusted to 5 × 10^5 CFU/ml, and 100 µL of this measured concentration was placed into the wells of a 96-well plate. Peptides P1–P6 were added to the well at 12 mM concentration, and the plate was incubated in a TECAN Sunrise^TM absorbance microplate reader at 37°C, with kinetic absorbance measurements taken every 30 min for 12 h. The growth inhibitory activity was calculated with the formula (OD600 DMSO-treated well − OD600 peptide-treated well)/OD600 DMSO-treated well × 100%. Wells treated with DMSO and containing Salmonella, as well as sterile media wells without Salmonella, were used as controls. At least two independent experiments were conducted.
(§2) MIC was determined as the peptide concentration at which no increase in growth (no increase in OD) was observed, indicating complete inhibition of ST growth. Additionally, to test the efficacy of peptides against another serovar, the assay was conducted using SE, with peptides added at 15 mM and 18 mM concentrations. Following incubation (37°C, 12 h), cultures were plated on the LB agar plate to confirm the bactericidal effect. At least two independent experiments were conducted.
(§3) To analyze the perceived efficacy of arginine and lysine substitutes reported in previous studies ([36], [37]), specific amino acid residues in P1 and P2 were replaced with lysine or arginine and tested if the substitutions enhanced anti-Salmonella (ST and SE) activity. The MICs of the arginine or lysine substituted peptides ([…], […], […], KDENK, PDEKK, KDEKK) were determined as described above. At least two independent experiments were conducted.

[2] = tested on: Salmonella Enteritidis (SE); conditions: 12 h
Procedure: as §1, §2, §3

[3] = tested on: Salmonella Typhimurium (ST); conditions: murium (ST)
Procedure: (§4) P1, P2, and P4 were heated for 6 min at 86°C ([21]) or treated with protease proteinase K (200 µg/ml) at 50°C for 30 min ([26]). Afterward, the treated and/or heated peptides at their respective MICs were evaluated in the inhibition assay with Salmonella. The protocol from above using the TECAN microplate reader was followed with the same controls.

[4] = tested on: Salmonella Enteritidis (SE)
Procedure: as §4

[5] = tested on: Salmonella Brenderup
Procedure: (§5) To further test the spectrum of the peptides’ anti-Salmonella capabilities, eight additional Salmonella serovars commonly implicated in foodborne illness (S. Anatum, S. Albany, S. Brenderup, S. Javiana, S. Heidelberg, S. Muenchen, S. Newport, S. Saintpaul) were investigated (Table S1). P1, P2, and P4 (selected based on dose-response assay results) were added to the assay at their MICs to determine their effect on different serovars. Inhibition was determined using the criteria described above.

[6] = tested on: Salmonella Albany
Procedure: as §5

[7] = tested on: Salmonella Javiana
Procedure: as §5

[8] = tested on: Salmonella Heidelberg
Procedure: as §5

[9] = tested on: Salmonella Muenchen
Procedure: as §5

[10] = tested on: Salmonella Newport
Procedure: as §5

[11] = tested on: Salmonella Saintpaul
Procedure: as §5

[12] = tested on: Salmonella Anatum
Procedure: as §5

N=C(N)NCCC[C@H](NC(=O)[C@H](CCCNC(=N)N)NC(=O)[C@H](CCC(=O)O)NC(=O)[C@H](CCC(N)=O)NC(=O)[C@H](CCCNC(=N)N)NC(=O)[C@H](CCCNC(=N)N)NC(=O)[C@@H]1CCCN1C(=O)[C@@H](N)CC(N)=O)C(=O)O (H-NPRRQERR-OH)
MIC [1]: 15 mM (≈ 16.7 mg/mL)
MIC [2]: 18 mM (≈ 20 mg/mL)

N=C(N)NCCC[C@H](NC(=O)[C@H](CCCNC(=N)N)NC(=O)[C@H](CCC(=O)O)NC(=O)[C@H](CCCNC(=N)N)NC(=O)[C@H](CCCNC(=N)N)NC(=O)[C@H](CCCNC(=N)N)NC(=O)[C@@H]1CCCN1C(=O)[C@@H](N)CC(N)=O)C(=O)O (H-NPRRRERR-OH)
MIC [1]: 15 mM (≈ 17.1 mg/mL)
MIC [2]: >18 mM

N=C(N)NCCC[C@H](NC(=O)[C@H](CCCNC(=N)N)NC(=O)[C@H](CCC(=O)O)NC(=O)[C@H](CCCNC(=N)N)NC(=O)[C@H](CCCNC(=N)N)NC(=O)[C@H](CO)NC(=O)[C@@H]1CCCN1C(=O)[C@@H](N)CC(N)=O)C(=O)O (H-NPSRRERR-OH)
MIC [1]: >18 mM
MIC [2]: >18 mM

NCCCC[C@H](NC(=O)[C@H](CCCCN)NC(=O)[C@H](CCC(=O)O)NC(=O)[C@H](CC(=O)O)NC(=O)[C@@H](N)CCCCN)C(=O)O [KDEKK] (H-KDEKK-OH)
MIC [1]: 15 mM (≈ 9.7 mg/mL)
MIC [2]: 15 mM (≈ 9.7 mg/mL)

NCCCC[C@H](NC(=O)[C@H](CC(N)=O)NC(=O)[C@H](CCC(=O)O)NC(=O)[C@H](CC(=O)O)NC(=O)[C@@H](N)CCCCN)C(=O)O [KDENK] (H-KDENK-OH)
MIC [1]: 12 mM (≈ 7.59 mg/mL)
MIC [2]: 12 mM (≈ 7.59 mg/mL)

NCCCC[C@H](NC(=O)[C@H](CCCCN)NC(=O)[C@H](CCC(=O)O)NC(=O)[C@H](CC(=O)O)NC(=O)[C@@H]1CCCN1)C(=O)O [PDEKK] (H-PDEKK-OH)
MIC [1]: 15 mM (≈ 9.24 mg/mL)

N=C(N)NCCC[C@H](NC(=O)[C@H](CCCNC(=N)N)NC(=O)[C@H](CCC(=O)O)NC(=O)[C@H](CCC(N)=O)NC(=O)[C@H](CCCNC(=N)N)NC(=O)[C@H](CO)NC(=O)[C@@H]1CCCN1C(=O)[C@@H](N)CC(N)=O)C(=O)O [Peptide P1] (H-NPSRQERR-OH)
MIC (mM) against SE, No treatment [2]: 18 mM (≈ 18.8 mg/mL)
MIC (mM) against ST, Heat treatment [3]: 18 mM (≈ 18.8 mg/mL)
MIC (mM) against ST, Protease treatment [3]: 18 mM (≈ 18.8 mg/mL)
MIC (mM) against SE, Heat treatment [4]: 18 mM (≈ 18.8 mg/mL)
MIC (mM) against SE, Protease treatment [4]: 18 mM (≈ 18.8 mg/mL)
Efficacy against Salmonella Brenderup (concentration inhibiting completely, MIC) [5]: 18 mM
Efficacy against Salmonella Albany (concentration inhibiting completely, MIC) [6]: 18 mM
Efficacy against Salmonella Javiana (concentration inhibiting completely, MIC) [7]: 18 mM
Efficacy against Salmonella Heidelberg (concentration inhibiting completely, MIC) [8]: 18 mM
Efficacy against Salmonella Muenchen (concentration inhibiting completely, MIC) [9]: 18 mM
Efficacy against Salmonella Newport (concentration inhibiting completely, MIC) [10]: 18 mM
Efficacy against Salmonella Saintpaul (concentration inhibiting completely, MIC) [11]: 18 mM
Efficacy against Salmonella Anatum (concentration inhibiting completely, MIC) [12]: 18 mM

NCCCC[C@H](NC(=O)[C@H](CC(N)=O)NC(=O)[C@H](CCC(=O)O)NC(=O)[C@H](CC(=O)O)NC(=O)[C@@H]1CCCN1)C(=O)O [Peptide P2] (H-PDENK-OH)
MIC (mM) against SE, No treatment [2]: 15 mM (≈ 9.02 mg/mL)
MIC (mM) against ST, Heat treatment [3]: 15 mM (≈ 9.02 mg/mL)
MIC (mM) against ST, Protease treatment [3]: 15 mM (≈ 9.02 mg/mL)
MIC (mM) against SE, Heat treatment [4]: 15 mM (≈ 9.02 mg/mL)
MIC (mM) against SE, Protease treatment [4]: 15 mM (≈ 9.02 mg/mL)
Efficacy against Salmonella Brenderup (concentration inhibiting completely, MIC) [5]: 15 mM
Efficacy against Salmonella Albany (concentration inhibiting completely, MIC) [6]: 15 mM
Efficacy against Salmonella Javiana (concentration inhibiting completely, MIC) [7]: 15 mM
Efficacy against Salmonella Heidelberg (concentration inhibiting completely, MIC) [8]: 15 mM
Efficacy against Salmonella Muenchen (concentration inhibiting completely, MIC) [9]: 15 mM
Efficacy against Salmonella Newport (concentration inhibiting completely, MIC) [10]: 15 mM
Efficacy against Salmonella Saintpaul (concentration inhibiting completely, MIC) [11]: 15 mM
Efficacy against Salmonella Anatum (concentration inhibiting completely, MIC) [12]: 15 mM

CC(C)[C@H](N)C(=O)N[C@@H](Cc1c[nH]cn1)C(=O)N[C@H](C(=O)N[C@@H](C)C(=O)N1CCC[C@H]1C(=O)N[C@@H](CCCCN)C(=O)O)[C@@H](C)O [Peptide P3] (H-VHTAPK-OH; N-terminus and C-terminus assumed)
Complete inhibition of ST growth ([1]; peptide 6, 12, 15 and 18 mM, 12 h, 37°C): Neither P3 nor P4 completely inhibited ST

CSCC[C@H](N)C(=O)N[C@@H](CC(C)C)C(=O)N[C@@H](CC(N)=O)C(=O)N[C@@H](CCC(=O)O)C(=O)N[C@@H](CCCNC(=N)N)C(=O)N[C@H](C(=O)N[C@@H](CCCCN)C(=O)O)C(C)C [Peptide P4] (H-MLNERVK-OH)
MIC (mM) against SE, No treatment [2]: 18 mM (≈ 16 mg/mL)
MIC (mM) against ST, Heat treatment [3]: 18 mM (≈ 16 mg/mL)
MIC (mM) against ST, Protease treatment [3]: 18 mM (≈ 16 mg/mL)
MIC (mM) against SE, Heat treatment [4]: 18 mM (≈ 16 mg/mL)
MIC (mM) against SE, Protease treatment [4]: 18 mM (≈ 16 mg/mL)
Efficacy against Salmonella Brenderup (concentration inhibiting completely, MIC) [5]: 18 mM
Efficacy against Salmonella Albany (concentration inhibiting completely, MIC) [6]: 18 mM
Efficacy against Salmonella Javiana (concentration inhibiting completely, MIC) [7]: 18 mM
Efficacy against Salmonella Heidelberg (concentration inhibiting completely, MIC) [8]: 18 mM
Efficacy against Salmonella Muenchen (concentration inhibiting completely, MIC) [9]: 18 mM
Efficacy against Salmonella Newport (concentration inhibiting completely, MIC) [10]: 18 mM
Efficacy against Salmonella Saintpaul (concentration inhibiting completely, MIC) [11]: 18 mM
Efficacy against Salmonella Anatum (concentration inhibiting completely, MIC) [12]: 18 mM
